Measurements published in US10131652B2, “Pyrimidinyloxy benzene derivatives as herbicides” (E. I. DU PONT DE NEMOURS AND COMPANY, priority 2014, dated 2018).
Like-named read-outs stand apart in the source and are kept apart here.

How the values were obtained:
Format in all cases: in vivo
[1] = test system: pigweed (Amaranthus retroflexus); assay: Test D pre-/postemergence plant response; conditions: Amaranthus retroflexus, pre-emergence, Preemergence, scale 0 to 100 (0 no effect, 100 complete control), read-out: Plant response rating, Pigweed
In short: (§1)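 Visual injury scoring (0–100) at 13 to 15 days in greenhouse. Preemergence sprays on seeded loam/sand; postemergence sprays on 1–4 leaf plants.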

[2] = test system: large (Lg) crabgrass (Digitaria sanguinalis); assay: Test D pre-/postemergence plant response; conditions: Digitaria sanguinalis; for pest or weed control at 16 g/ha: 16 g ai/ha; for pest or weed control at 31 g/ha: 31 g ai/ha; for pest or weed control at 62 g/ha: 62 g ai/ha; for pest or weed control at 125 g/ha: 125 g ai/ha
In short: as §1

[3] = test system: blackgrass (Alopecurus myosuroides); assay: Test D pre-/postemergence plant response; conditions: Alopecurus myosuroides; for pest or weed control at 16 g/ha: 16 g ai/ha; for pest or weed control at 31 g/ha: 31 g ai/ha; for pest or weed control at 62 g/ha: 62 g ai/ha; for pest or weed control at 125 g/ha: 125 g ai/ha
In short: as §1

[4] = test system: lambsquarters (Chenopodium album); assay: Test D pre-/postemergence plant response; conditions: Chenopodium album; for pest or weed control at 31 g/ha: 31 g ai/ha; for pest or weed control at 62 g/ha: 62 g ai/ha; for pest or weed control at 125 g/ha: 125 g ai/ha
In short: as §1

[5] = test system: velvetleaf (Abutilon theophrasti); assay: Test D pre-/postemergence plant response; conditions: Abutilon theophrasti; for pest or weed control at 31 g/ha: 31 g ai/ha; for pest or weed control at 62 g/ha: 62 g ai/ha; for pest or weed control at 125 g/ha: 125 g ai/ha
In short: as §1

[6] = test system: Italian ryegrass (Lolium multiflorum); assay: Test D pre-/postemergence plant response; conditions: Lolium multiflorum; for pest or weed control at 31 g/ha: 31 g ai/ha; for pest or weed control at 62 g/ha: 62 g ai/ha; for pest or weed control at 125 g/ha: 125 g ai/ha
In short: as §1

[7] = test system: ragweed (common ragweed, Ambrosia elatior); assay: Test B pre-/postemergence plant response
In short: (§2)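 Greenhouse pots, loam/sand soil; compound formulated with surfactant in non-phytotoxic solvent. Preemergence soil spray and postemergence spray at 1–2 leaf stage run simultaneously. Visual injury, 0–100, about 10 days post-treatment.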

kochia (Kochia scoparia) = assay: Test B pre-/postemergence plant response
In short: as §2

[8] = test system: Italian ryegrass (Lolium multiflorum); assay: Test B pre-/postemergence plant response
In short: as §2

[9] = post-emergence, Postemergence, scale 0 to 100 (0 no effect, 100 complete control), read-out: Crabgrass, Large plant response rating
[10] = post-emergence, Postemergence, scale 0 to 100, 0 no effect, 100 complete control, read-out: Plant response rating, Crabgrass, Large
[11] = pre-emergence, Preemergence, scale 0 to 100 (0 no effect, 100 complete control), read-out: Plant response rating, Crabgrass, Large
[12] = post-emergence, Postemergence, scale 0 to 100 (0 no effect, 100 complete control), read-out: Blackgrass plant response rating
[13] = post-emergence, Postemergence, scale 0 to 100, 0 no effect, 100 complete control, read-out: Plant response rating, Blackgrass
[14] = pre-emergence, Preemergence, scale 0 to 100 (0 no effect, 100 complete control), read-out: Plant response rating, Blackgrass
[15] = post-emergence, Postemergence, scale 0 to 100, 0 no effect, 100 complete control, read-out: Plant response rating, Lambsquarters
[16] = pre-emergence, Preemergence, scale 0 to 100 (0 no effect, 100 complete control), read-out: Plant response rating, Lambsquarters
[17] = post-emergence, Postemergence, scale 0 to 100, 0 no effect, 100 complete control, read-out: Plant response rating, Velvetleaf
[18] = pre-emergence, Preemergence, scale 0 to 100 (0 no effect, 100 complete control), read-out: Plant response rating, Velvetleaf
[19] = post-emergence, Postemergence, scale 0 to 100, 0 no effect, 100 complete control, read-out: Plant response rating, Ryegrass, Italian
[20] = pre-emergence, Preemergence, scale 0 to 100 (0 no effect, 100 complete control), read-out: Plant response rating, Ryegrass, Italian
[21] = 125 g ai/ha, postemergence, 0 to 100 scale, 0 no effect, 100 complete control
[22] = Postemergence, 500 g ai/ha, 0 to 100 scale (0 no effect, 100 complete control)
[23] = Preemergence, 125 g ai/ha, 0 to 100 scale (0 no effect, 100 complete control)
[24] = Preemergence, 500 g ai/ha, 0 to 100 scale where 0 is no effect and 100 is complete control

In the case of `Fc1cccc(Oc2ncc(Cl)cn2)c1-c1cc(C(F)(F)F)on1` [Compound 168, 5-chloro-2-[2-[5-(trifluoromethyl)-3-isoxazolyl]-3-fluorophenoxy]pyrimidine], the pest or weed control at 31 g/ha ([1]; 31 g ai/ha) is reported as 100%, the pest or weed control at 62 g/ha ([1]; 62 g ai/ha) is reported as 100% and the pest or weed control at 16 g/ha [2, 9] is reported as 5%. For the same compound, the pest or weed control at 31 g/ha [2, 9] was 5%, the pest or weed control at 62 g/ha [2, 10] was 15% and the pest or weed control at 125 g/ha [2, 10] was 40%. It also gave a pest or weed control at 125 g/ha ([2]; pre-emergence, Preemergence, read-out: Plant response rating (scale 0 to 100), Crabgrass, Large) of 100%, a pest or weed control at 16 g/ha [2, 11] of 100% and a pest or weed control at 31 g/ha [2, 11] of 100%. For the same compound, the pest or weed control at 62 g/ha [2, 11] was 100%, the pest or weed control at 16 g/ha [3, 12] was 10% and the pest or weed control at 31 g/ha [3, 12] was 15%. The pest or weed control at 62 g/ha [3, 13] was 15%, the pest or weed control at 125 g/ha [3, 13] was 20% and the pest or weed control at 125 g/ha ([3]; pre-emergence, Preemergence, read-out: Plant response rating (scale 0 to 100), Blackgrass) was 90%. It also gave a pest or weed control at 16 g/ha [3, 14] of 85%, a pest or weed control at 31 g/ha [3, 14] of 90% and a pest or weed control at 62 g/ha [3, 14] of 90%. It also gave a pest or weed control at 31 g/ha ([4]; post-emergence, Postemergence, scale 0 to 100 (0 no effect, 100 complete control), read-out: Lambsquarters plant response rating) of 85%, a pest or weed control at 62 g/ha [4, 15] of 85% and a pest or weed control at 125 g/ha [4, 15] of 90%. The pest or weed control at 125 g/ha ([4]; pre-emergence, Preemergence, read-out: Plant response rating (scale 0 to 100), Lambsquarters) was 98%, the pest or weed control at 16 g/ha ([4]; pre-emergence, Preemergence, 16 g ai/ha, scale 0 to 100 (0 no effect, 100 complete control), read-out: Plant response rating, Lambsquarters) was 90% and the pest or weed control at 31 g/ha [4, 16] was 100%. For the same compound, the pest or weed control at 62 g/ha [4, 16] was 100%, the pest or weed control at 31 g/ha ([5]; post-emergence, Postemergence, scale 0 to 100 (0 no effect, 100 complete control), read-out: Velvetleaf plant response rating) was 40% and the pest or weed control at 62 g/ha [5, 17] was 45%. The pest or weed control at 125 g/ha [5, 17] was 90%, the pest or weed control at 125 g/ha ([5]; pre-emergence, Preemergence, read-out: Plant response rating (scale 0 to 100), Velvetleaf) was 100% and the pest or weed control at 16 g/ha ([5]; pre-emergence, Preemergence, 16 g ai/ha, scale 0 to 100 (0 no effect, 100 complete control), read-out: Plant response rating, Velvetleaf) was 85%. For the same compound, the pest or weed control at 31 g/ha [5, 18] was 100%, the pest or weed control at 62 g/ha [5, 18] was 100% and the pest or weed control at 31 g/ha ([6]; post-emergence, Postemergence, scale 0 to 100 (0 no effect, 100 complete control), read-out: Ryegrass, Italian plant response rating) was 5%. The pest or weed control at 62 g/ha [6, 19] was 5%, the pest or weed control at 125 g/ha [6, 19] was 15% and the pest or weed control at 125 g/ha ([6]; pre-emergence, Preemergence, read-out: Plant response rating (scale 0 to 100), Ryegrass, Italian) was 95%. It also gave a pest or weed control at 16 g/ha ([6]; pre-emergence, Preemergence, 16 g ai/ha, scale 0 to 100 (0 no effect, 100 complete control), read-out: Plant response rating, Ryegrass, Italian) of 70%, a pest or weed control at 31 g/ha [6, 20] of 95% and a pest or weed control at 62 g/ha [6, 20] of 95%. For the same compound, the “Plant response rating, Ragweed” value [7, 21] was 90, the “Plant response rating, Ragweed” value [7, 22] was 90 and the “Ragweed plant response rating” value [7, 23] was 70. For the same compound, the “Plant response rating, Ragweed” value [7, 24] was 80, the “Plant response rating, Kochia” value (kochia (Kochia scoparia); [21]) was 90 and the “Plant response rating, Kochia” value (kochia (Kochia scoparia); [22]) was 90. For the same compound, the “Kochia plant response rating” value (kochia (Kochia scoparia); [23]) was 100, the “Plant response rating, Kochia” value (kochia (Kochia scoparia); [24]) was 100 and the “Plant response rating, Ryegrass, Italian” value [8, 21] was 90. For the same compound, the “Plant response rating, Ryegrass, Italian” value [8, 22] was 90, the “Ryegrass, Italian plant response rating” value [8, 23] was 80 and the “Plant response rating, Ryegrass, Italian” value [8, 24] was 100.
